# Test results: patent US20040076614A1, “Symbiotic regenerative agent” (priority 2001, published 2004)
# System: depression with gastro-intestinal over-growth with Aspergillus and Candida yeasts
# Assay: Antidepressive effectiveness (proband tests), multi-step method
# Type: in vivo, human
# Design: key: − negative; + positive
# Settings: Level 0 antidepressants (Seroxat); Level 1 1 g/day oral 4 weeks; Level 2 2 g daily oral 4 weeks after level 1
# Excerpt: Antidepressive effectiveness (2 proband tests/female 1/male 1)
# Diseases such as depressions can often be treated in an exclusively symptomatic way with psychopharmaceuticals. However, mycoses/mycotoxins may be the initial cause of such diseases. The object was to eliminate the gastro-intestinal over-growth with Aspergillus and Candida yeasts using BHQ (see also Patent Application EP 00 124 497), and to apply BHQ R6 regenerative agent in a multi-step method.
# Level 0: Depression conservatively treated with antidepressants (Seroxat®). The general state of health was subjectively reported as non-satisfactory; in part, depression attacks occurred at different times of day (e.g., in the evening), so that the dosage was increased. The microbiological detection of Candida spec. and Aspergillus spec. was positive. The probands complained about a high weight increase (“spongy feeling”).
# Level 1: For 4 weeks, BHQ “flavor-containing medicament” was administered orally once a day for the decontamination of the mycosis and/or any mycotoxins present (1 g/day).
# Level 2: As a next step after level 1, BHQ R6 regenerative agent (2 g daily) was administered orally for 4 weeks.
smiles,measurement,value
Fc1ccc([C@@H]2CCNC[C@H]2COc2ccc3c(c2)OCO3)cc1 [Seroxat],General health,−
same,Weight increase,+
same,microbiological gastro-intestinal detection: Candida spec. Aspergillus spec.,+
same,part. status,+
